In paper PMC3234531 (2011):

Key:
[1] = target: IKca channel (intermediate conductance potassium channel) (Homo sapiens, UniProt O15554); experiment: modified biotin switch; format: cell-based
[2] = target: cystathionine γ-lyase (CSE); experiment: CSE activity assay after pre-incubation with the NO donor S-nitroso-glutathione; format: biochemical

Chain of IKca channel (intermediate conductance potassium channel) (O15554 whole entry): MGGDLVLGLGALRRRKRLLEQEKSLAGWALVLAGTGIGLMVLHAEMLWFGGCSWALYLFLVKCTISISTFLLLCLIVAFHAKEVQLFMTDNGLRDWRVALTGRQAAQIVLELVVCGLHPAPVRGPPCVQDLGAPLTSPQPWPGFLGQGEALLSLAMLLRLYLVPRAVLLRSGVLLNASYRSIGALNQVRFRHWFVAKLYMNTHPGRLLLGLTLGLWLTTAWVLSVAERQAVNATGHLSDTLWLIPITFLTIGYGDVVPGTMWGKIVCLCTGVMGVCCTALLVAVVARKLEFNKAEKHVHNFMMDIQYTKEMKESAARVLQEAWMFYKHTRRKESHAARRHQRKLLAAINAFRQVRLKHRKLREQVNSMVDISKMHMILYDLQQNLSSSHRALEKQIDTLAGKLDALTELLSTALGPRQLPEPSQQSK

## S [H2S]
[1]
  modified biotin switch (S-sulfhydration) assay, DTT-sensitive: IKca channels from human aortic endothelial cells are sulfhydrated by NaHS in a DTT-sensitive fashion

## [N]=O [NO]
[2]
  IC50: ~100 nM
